In patent US20230000842A1, “METHODS OF TREATING CARTILAGE DISORDERS THROUGH INHIBITION OF CLK AND DYRK” (SAMUMED, LLC, priority 2019, published 2023):

Experiments:
[1] = system: primary human mesenchymal stem cells (hMSCs); test: Chondrogenesis screening using primary human mesenchymal stem cells; type: cell-based; settings: Homo sapiens, Mesenchymal stem cells
How it was run: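 Derived values are EC50 for 50% chondrogenesis, maximal activity and the dose giving it. These come from nodule area in passage 3–6 primary hMSCs, expressed as fold change over the mean of 3 same-plate DMSO wells, 2–3 replicates per concentration. TGF-β3 served as positive control.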

[2] = system: CLK mediated phosphorylation of SRSF4, 5, 6; test: Western blot of phospho-SRSF in hMSCs and human chondrocytes; type: cell-based; settings: 1 hr, vs DMSO
Experimental: (§1) Cells were plated at 300,000 cells per well in a 6-well plate and following an overnight incubation, treated with DMSO (vehicle control) or indicated compounds and incubated at 37° C. and 5% CO2 for the indicated times. Following treatment, cells were trypsinized and pelleted by centrifugation and washed with PBS. Total protein from the cell pellet was extracted or for fractionation, protein was fractionated into cytoplasmic and nuclear fractions using a Nuclear and Cytoplasmic Extraction Reagents (NE-PER™) kit containing Halt™ protease and phosphatase inhibitors (Thermo Fisher). Protein concentrations were quantified using the Pierce Micro BCA protein assay kit (Thermo Fisher). […] Blots were blocked with non-fat dry milk. Primary antibodies were incubated overnight at 4° C. β-actin and Lamin B1 were used as loading controls (Supplementary Table S2 for primary antibodies). Mouse and rabbit horseradish peroxidase (HRP)-conjugated secondary antibodies were diluted in 5% blocking buffer in TBS-T. Protein-antibody complexes were detected by chemiluminescence using the SuperSignal West Femto Chemiluminescent Substrate (Thermo Fisher) and images were captured with a UVP ChemiDocIt2 camera system (Fisher Scientific, Hampton, N.H.).

[3] = system: nuclear speckles in hMSCs and chondrocytes; test: Nuclear speckles assay (phospho-SC35 immunofluorescence); type: cell-based, human; settings: 30 nM, 100 nM, 6 hrs, compared to DMSO
Text: Cells were stained with phospho-SC35 antibody (green) or DAPI nuclear stain (blue).
After approximately 6 hrs, cells were fixed and stained with a phospho-SC35 antibody (Santa Cruz Biotechnology), followed by an Alexa-Fluor 488 secondary antibody (Thermo Fisher) and DAPI (Thermo Fisher). Cells were imaged at 100× magnification using the EVOS FL (Life Technologies, Carlsbad, Calif.).

FOXO1 = test: Western blot and immunofluorescence of FOXO1 with IL1-β; type: cell-based, human; settings: hMSCs and chondrocytes; in the presence of IL-1β; compared to DMSO
Experimental: Cells were stained with anti-FOXO1 antibody (red) and DAPI nuclear stain (blue).
as §1

[4] = system: Wnt pathway gene expression in hMSCs; test: Nanostring nCounter Wnt Pathways panel in hMSCs; type: cell-based, human; settings: >2-fold change, p<0.05, FDR corrected
Experimental: FIGS. 2D and 2E depict gene expression changes of selected genes from FIG. 2C by qRT-PCR (n=3, Mean±95% CI, *p<0.05, **p<0.01, ***p<0.001, one-way ANOVA). […] Downregulation of AXIN2, TCF7, LRP5, BAMBI, NKD1, PAI-1, LRP6, FZD6, FZD7, PITX2, ERBB2, and CTGF gene expression and increased levels of Wnt pathway inhibitors SFRP2 and DACT1 were determined by qPCR.
Fifty nanograms of RNA was hybridized with Tagsets and probe pools from the nCounter® Vantage 3D™ Wnt Pathways Panel (NanoString Technologies) for 16 hrs at 67° C. Hybridized samples were ran on a nCounter® SPRINT Profiler (NanoString Technologies). Nanostring gene counts were normalized by the geometric mean of all housekeeping genes by nSolver (v3.0). P-values from normalized counts were calculated by an independent t-test and adjusted by the false discovery rate (FDR) method (Benjamini & Hochberg) to correct for multiple comparisons using R (v3.4.2). Data was plotted using R (v3.4.2).

[5] = system: cartilage of MIA injected rats; test: Monosodium iodoacetate (MIA) injection induced OA model, cartilage Western blot; type: in vivo, rat; settings: 4 days after single IA injection
Experimental: Western blots for phospho-SRSF, SRSF1, AXIN2, phospho-NF-κB, total NFκB, phospho-STAT3, total STAT3, phospho-FOXO1 and total FOXO1 in the cartilage, with β-actin as a loading control.
Male Sprague Dawley (SD) rats (250 g±30 g) (Charles River, Wilmington, Mass.) were used for all animal studies. All animals were treatment naïve at the start of the studies. Procedures were performed during the hours of 8 am-5 pm on weekdays in a sterile hood in the vivarium. Rats were housed in individual ventilated cages (≤3 per cage) under the following conditions:
For cytokine, MMP, histology (H&E and Safranin O-Fast Green staining), OARSI scores and weight bearing measurements: At 10 weeks postnatal age, 20 rats were subjected to MIA injection (3 mg in 50 μL). Each rat was anesthetized with an isoflurane/O2 mixture until the flexor withdrawal reflex was abolished. The surgeon wore a face mask, hair net, lab coat and shoe covers, and gloves that were disinfected with betadine or chlorhexidine between animals. All tools were sterilized with an autoclave. MIA was dissolved in 0.9% (w/v) saline (3 mg in 50 μL). The solution was filtrated with 0.22 μm membrane before administration. After being shaved and disinfected with betadine or chlorhexidine solution, the right knees were injected intra-articularly with 50 μL of MIA using 0.5-in 26-gauge needle, while the contralateral knees received an IA injection of 0.9% saline. After injection, the injected surface was washed with sterile saline solution. All the rats were allowed to move freely in plastic cages until their necropsies at different time points post-MIA injection.
On day 11, animals were sacrificed using Carbon dioxide (CO2). Cartilage was isolated, flash frozen in liquid Nitrogen and stored at −80° C. until processing for protein extraction.

[6] = system: Wnt pathway activity (SW480 colon carcinoma cells stably expressing the Sp5-Luc reporter); test: Wnt pathway activity screening assay (Sp5-Luc reporter gene assay); settings: Homo sapiens, SW480

SMILES: CC(C)CC(=O)Nc1cncc(-c2ccc3[nH]nc(-c4nc5c(-c6cccc(F)c6)cncc5[nH]4)c3c2)c1 [compound 123]
- Emax ([1]; hMSC chondrogenesis, maximum activity relative to TGF-β3 (10 ng/mL) positive control, read-out: Max. Activity as % TGF-β3 activity): 397%
- EC50 ([1]; read-out: Conc (nM) of 50% TGF-β3 activity): 30 nM
- CLK mediated phosphorylation of SRSF4, 5, 6 [2]: dose-dependently inhibited
- nuclear speckles (spliceosome modulation) [3]: enlargement of nuclear speckles
- phosphorylation of FOXO1 (FOXO1): dose-dependently inhibited
- total FOXO1 protein levels and nuclear localization (FOXO1): increases
- number of Wnt pathway genes downregulated [4]: 19 genes
- number of Wnt pathway genes upregulated [4]: 9 genes
- protein levels of total FOXO1 [5]: increased
- protein levels of total NF-κB [5]: decreased
- total protein levels of SRSF1 and STAT3 [5]: no changes
- phosphorylation of SRSF, NF-κB, STAT3, and FOXO1 ([5]; compared to vehicle): decreased
- EC50 [6]: 3.4 nM
